The conditions of data set [1]: cited from earlier work; for Effective radiation dose of conventional nuclear medical imaging agent examination: in vivo. The source says: The effective radiation dose to the body of ^99mTc-3P4-RGD2 and ^99mTc-RGD-BBN were 1.15 ± 0.13 mSv and 0.65 ± 0.07 mSv respectively ^9. According to the 2007 Recommendations of the International Commission on Radiological Protection (ICRP), radiation equivalent dose which occupational workers’ vital organs were exposed to should be less than 500mSv and radiosensitive organs should be less than 150mSv. In our study, the mean absorbed dose equivalent for the whole body was 2.02E-03 mSv / MBq in healthy males and 2.31E-03 mSv / MBq in healthy females. Compared with other clinical mar ...

The test system of a further data set is breast malignant lesions. Nature of the data set: SPECT/CT scintimammography of patients with breast malignant tumors. Format: in vivo, human. Also noted: key to Visual uptake grading: grade 1 = no abnormal increased uptake; grade 2 = mildly increased or heterogeneous uptake; grade 3 = definite focal increased uptake. The conditions noted are these: for Visual uptake grading: SPECT/CT 1 h p.i., 3 readers. An excerpt: All patients were sent to the ^99mTc-3P4-RGD2 and ^99mTc-RGD-BBN SMM on an individual basis. The time interval between two imaging procedures was 48–54 hr. Finally, ^99mTc-RGD-BBN and ^99mTc-3P4-RGD2 SMM results were compared with each other. To be included, a patient had to be without any other history of breast disease. Exclusion criteria included pregnancy, lactation and a body weight greater than 80 kg.
The 3P4-RGD2 and RGD-BBN were generously provided by the Medical Isotopes Research Center of Peking University in freeze-dried kits form. Na^99mTcO4 was obtained from a commercial ^99Mo/^99mTc generator (Beijing Atom High Tech Co., Ltd.). The kit for preparation of ^99mTc-3P4-RGD2 was formulated by containing, per millilitre, 20 μg of HYNIC-3P4-RGD2, 5 mg of TPPTS, 6.5 mg of tricine, 40 mg of mannitol, 38.5 mg of disodium succinate hexahydrate and 12.7 mg of succinic acid. Radiolabeling and quality control procedures for ^99mTc-3P4-RGD2 were performed as described previously ^4. The kit for preparation of ^99mTc-RGD-BBN was formulated by containing, per millilitre, 20 μg of HYNIC-RGD-BBN, 6 mg of TPPTS, 10 mg of tricine, 40 mg of mannitol, 38.5 mg of disodium succinate hexahydrate and 12.7 mg of succinic acid. Then 1 mL of Na^99mTcO4 solution in saline was added to each kit vial followed by 30 min incubation at 100°C. The quality control was conducted by radioactive thin layer chromatography (ITLC), counting the high labeling yield of about 95%. Both ^99mTc-3P4-RGD2 and ^99mTc-RGD-BBN with a mean radioactivity of 299 ± 30 MBq and 293 ± 32 MBq were administered via single intravenous bolus injection followed by a 10 mL saline flush. ^99mTc-3P4-RGD2 and ^99mTc-RGD-BBN was performed with SPECT/CT at 1 h after intravenous injection of radiotracers respectively on separate days.
SPECT: Emission images were acquired using a dual-head, large field-of-view scintillation camera (Precedence, Philips Healthcare), equipped with a low-energy, high-resolution and parallel-hole collimator. In all healthy volunteers, planar images in both anterior and posterior views were acquired at 10 min, 30 min, 1 h, 2 h, 4 h, 8 h and 24 h post-injection and were stored digitally, using ^99mTc with a 20% energy window centered on 140 keV and 128×128 matrix. The velocity of scanning was 15 cm/min. SPECT images in all the patients were acquired over 360° (180°per head) in supine position with raised arms during the imaging. Imaging with both radiotracers was performed using 6°angular steps in a 20 s time frame, with a 64×64 matrix size. Distance between the breast and detector was minimized. The position of the patient was recorded in detail and kept consistent to the greatest extent in the second SPECT scan to make sure that the two different SPECT images could be fused to the CT images.
CT images from neck to abdomen were acquired sequentially in a non-dedicated 3rd-generation scanner installed in the SPECT camera gantry, with a 10 mm slice thickness, a maximum current of 2.5 mA and a 140 kV potential. The patients just had one CT scan since ^99mTc-3P4-RGD2 and ^99mTc-RGD-BBN SPECT were undertaken on the same device.
All images were interpreted qualitatively by three experienced nuclear medicine radiologists who were unaware of the clinical history and other test results of all patients. Visual analysis was performed on a per-lesion basis and in a blinded fashion. A 3-point scale system was adopted to describe the uptake degree for breast lesions. […] Homogeneous uptake in both breasts was classified as grade 1. SMM was considered positive for malignancy if the visual score was ≥2. There was no disagreement between three radiologists in our study.

On to “[^99mTc (HYNIC-3PRGD2) (tricine) (TPPTS)] [99mTc-3P4-RGD2]”, for which the “Effective radiation dose to the body” value in data set [1] (per examination (299 ± 30 MBq 99mTc-3P4-RGD2, 293 ± 32 MBq 99mTc-RGD-BBN i.v.)) is given as 1.15 ± 0.13 mSv. The Visual uptake grading in the data set on breast malignant lesions (Patient 1: DCIS, R, 2.3 cm, αvβ3 -, GRPR +) amounted to 1; in the data set on breast malignant lesions (Patient 2: DCIS, L, 2.0 cm, αvβ3 +, GRPR +), 3; in the data set on breast malignant lesions (Patient 3: IDC, L, 5.1 cm, αvβ3 +, GRPR +), 3; in the data set on breast malignant lesions (Patient 4: IDC, R, 2.1 cm, αvβ3 +, GRPR -), 3; with breast malignant lesions (Patient 5: IDC, L, 5.8 cm, αvβ3 +, GRPR +), 3; with breast malignant lesions (Patient 6: IDC, L, 6.3 cm, αvβ3 +, GRPR +), 3. In the data set on breast malignant lesions (SPECT/CT 1 h after i.v. injection, 4 IDC, 2 DCIS), the “Malignant lesions detected by SPECT/CT (of 6 malignant lesions in 6 patients)” value is “five lesions with clear uptake and the other one with barely uptake”.

On to `[99Tc].[C-]#[N+]CC(C)(C)OC.[C-]#[N+]CC(C)(C)OC.[C-]#[N+]CC(C)(C)OC.[C-]#[N+]CC(C)(C)OC.[C-]#[N+]CC(C)(C)OC.[C-]#[N+]CC(C)(C)OC` [99mTc—MIBI], for which the “Effective radiation dose of conventional nuclear medical imaging agent examination” value in data set [1] is given as 7.05 mSv.

On to `O.O.O=P([O-])([O-])CP(=O)([O-])[O-].[99Tc+4]` [99mTc—MDP], for which the “Effective radiation dose of conventional nuclear medical imaging agent examination” value in data set [1] is reported as 5.92 mSv.

Values taken from publication PMC4388716, “An Exploratory Study on ^99mTc-RGD-BBN Peptide Scintimammography in the Assessment of Breast Malignant Lesions Compared to ^99mTc-3P4-RGD2” (PLoS ONE, 2015).
